Assays:
[1] = biological target: T1, Delta receptor, mouse vas deferens (Mus musculus, UniProt P32300); assay: Mouse vas deferens, inhibition of electrically induced contractions, delta; assay type: cell-based; conditions: read-out: Mouse Vas Deferens ED50 (nM) δ
T1 construct: Mouse vasa deferentia (MVD), CD-1 strain, Harlan, Raleigh, N.C.) were removed from mice; tissue Harlan, Raleigh, N.C; (animals); host or cells: mouse vas deferens, CD-1 strain
Method: The compound of formula (I) and compounds 1, 3, 4, 5 and 6 as identified above, were evaluated for in vitro opioid receptor activity in various receptor systems, including mouse vas deferens (Mouse Vas Deferens ED50), and guinea pig ileum (Guinea Pig Ileum ED50). The assay procedures used for such determinations of receptor activity are set out below.
In vitro bioassays: Mouse vasa deferentia (MVD), CD-1 strain, Harlan, Raleigh, N.C.) were removed from mice and suspended between platinum electrodes with 0.5 g of tension in organ bath chambers containing a modified Mg^++ free Krebs buffer of the following composition (millimolar): NaCl, 117.5; KCl, 4.75; CaCl2, 2.6; KH2PO4, 1.20; NaHCO3, 24.5; and glucose, 11. The buffer was saturated with 95% O2/5% CO2 and kept at 37° C. Tissues were stimulated at supramaximal voltage with 10-Hz pulse trains for 400-msec.; train interval 10 seconds; and 1.0 msec pulse duration at maximal voltage. Delta receptor activity was determined by adding appropriate concentrations of test compound to organ baths and allowing a maximal response before addition of the next higher concentration.
The ED50 values were extrapolated from curves showing the dose concentration plotted against the response (J. A. H. Lord, A. A. Waterfield, J. Hughes, H. W. Kosterlitz, Nature 267, 495, (1977)).

rats [2] = assay: Tail pinch test for analgesia in rats; assay type: in vivo; conditions: rat; for Analgesia (delay of response to tail pinch): 0.30 mg/kg i.v., cutoff 20 sec
Method: (§1) Analgesia was assayed in rats using the tail pinch test with simultaneous monitoring of capillary blood gases (pCO2). During this testing period respiratory depression values were also obtained. Male rats (Wistar Hannover 200-300 g) were anesthetized with 2% isoflurane (J. A. Webster, Inc., Sterling, Mass. The femoral artery was cannulated with PE50 tubing for blood sampling. The external jugular vein was also cannulated with Silastic tubing for drug injection. After surgery, anesthetic gases were removed and the rat was allowed to rest in a plastic restrainer for 60 minutes to establish baseline values of blood gases.
(§2) The compounds 1-6 were administered intravenous. Nociceptive response and respiratory values were obtained for a 1-2 hour period. The femoral artery cannulation was used to draw arterial blood into a syringe pre-wetted with heparin. Samples were then analyzed with a blood gas analyzer (Ph/Gas Analyzer Synthesis 25 Model, Instrumentation Laboratory) to assess respiratory depression effects. The volume of blood taken each time was 0.15 cc. The syringes were capped immediately and the blood gases analyzed within 5 minutes. The blood exposed to air at the tip of the syringe was expelled. The blood was mixed by gentle inversion and an aliquots of 0.10 cc was injected into the blood gas analyzer.
An artery clamp was placed on the tail (one inch from the tip of the tail) for a short duration until an escape response occurred (i.e. tail-flick or vocalization). The escape response latency was recorded by means of a stopwatch. A cutoff time of 20 sec. was used to prevent unnecessary tissue damage. […] The elapsed time to elicit a pain response was recorded as the tail pinch latency in seconds. Blood gases were monitored at approximately the same time points as the tail pinch test.
(§3) The ED50 values for analgesia potency and respiratory depression were determined to calculate the safety or therapeutic ratio, which is defined as the respiratory depression ED50 divided by analgesia ED50.

[3] = Respiratory depression by blood gas (pCO2) monitoring in rats; assay type: in vivo; conditions: male, Wistar Hannover, in vivo; rat, intravenous
Method: as §1, §2
(§4) The gas analyzer was well maintained and operated. Calibrations (low, normal and high) were done at the beginning of every day of testing. The sample lines, co-oximeter and the blood gas electrode were cleaned regularly at the end of every day of testing. Hematocrit calibration (high and low) was scheduled on a weekly basis and tubing, sample and pinch valve were replaced on a monthly basis.
as §3

rats [4] = assay: as above; assay type: in vivo; conditions: rat; for Respiratory Depression % Units Baseline pCO2: 0.30 mg/kg i.v.
Method: as §1, §2, §4, §3

beagle dogs = assay: Emesis observation in beagle dogs, escalating i.v. doses; assay type: in vivo, dog; conditions: i.v. slow bolus, 0.1, 0.3 and 0.5 mg/kg
From the text: The following describes a procedure that provided observations on the emesis effects of (−)-3-((S)-((2S,5R)-4-allyl-2,5-dimethyl-1-piperazinyl)(3-thienyl)methyl)phenol (DPI-125). Three adult male beagle dogs were separately administered (−)-3-((S)-((2S,5R)-4-allyl-2,5-dimethyl-1-piperazinyl)(3-thienyl)methyl)phenol (DPI-125) in escalating dosages. Doses were chosen to produce blood levels consistent with strong to extreme analgesia and that would produce obvious pharmacological effects including lethargy and sedation. The compound was dissolved in sterile 5% dextrose solution that was buffered with acetic acid/sodium acetate buffer and administered intravenously in a slow bolus injection over 1-2 minutes. Firstly, the three dogs were administered test volume dosages of buffered 5% dextrose to ensure there was no reaction to the vehicle. Secondly, (−)3-((S)-((2S,5R)-4-allyl-2,5-dimethyl-1-piperazinyl)(3-thienyl)methyl)phenol (DPI-125) was administered in single injections at escalating dosages of 0.1, 0.3 and 0.5 mg/kg, with an intervening seven-day period before giving the next highest dose.

T1 sequence (P32300 whole entry): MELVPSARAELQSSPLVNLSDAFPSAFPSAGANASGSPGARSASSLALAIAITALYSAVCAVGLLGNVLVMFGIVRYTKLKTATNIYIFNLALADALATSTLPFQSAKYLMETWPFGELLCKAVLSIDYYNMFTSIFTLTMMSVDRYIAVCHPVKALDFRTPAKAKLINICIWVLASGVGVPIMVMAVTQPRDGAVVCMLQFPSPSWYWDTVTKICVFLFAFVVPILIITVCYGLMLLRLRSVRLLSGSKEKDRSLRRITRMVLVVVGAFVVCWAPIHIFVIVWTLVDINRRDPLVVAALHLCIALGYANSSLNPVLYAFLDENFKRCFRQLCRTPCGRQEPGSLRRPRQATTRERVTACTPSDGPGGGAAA

With C=CCN1C[C@H](C)N([C@H](c2ccsc2)c2cccc(O)c2)C[C@H]1C [Compound 2, (−)3-((S)-((2S,5R)-4-allyl-2,5-dimethyl-1-piperazinyl)(3-thienyl)methyl)phenol] the EC50 [1] was 14.2 nM, the “Analgesia (delay of response to tail pinch)” value (rats [2]; 4 min.) was 20 s and the “Analgesia (delay of response to tail pinch)” value (rats [2]; 8 min.) was 20 s. For the same molecule, the “Analgesia (delay of response to tail pinch)” value (rats [2]; 32 min.) was 12.3 s, the “Analgesic effect in words” value (rats [2]; i.v., tail pinch, FIGS. 1-6) was “safely maintains analgesia for an extended time” and the ED50 (rats [2]; intravenous, tail pinch, 20 sec cutoff) was 0.046 mg/kg. For the same molecule, the ED50 [3] was 0.72 mg/kg, the “Respiratory Depression % Units Baseline pCO2” value (rats [4]; 4 min.) was 48% and the “Respiratory Depression % Units Baseline pCO2” value (rats [4]; 8 min.) was 34%. The “Respiratory Depression % Units Baseline pCO2” value (rats [4]; 32 min.) was 17%, the “Mortality due to respiratory depression” value (rats [4]; i.v.) was “without lethal respiratory depression” and the “Safety Ratio (respiratory depression ED50 divided by analgesia ED50)” value (rats [4]; intravenous) was 15.7. The “Safety ratio, times greater than any of the other enantiomeric compounds tested” value (rats [4]; intravenous) was “at least six times greater”, the “Safety ratio, times greater than either of the racemic mixtures” value (rats [4]; intravenous) was no less than 3 times and the “Retching or vomiting (emesis)” value (beagle dogs) was “No retching or vomiting was observed”.
